From patent publication US11629147B2, “Triazolo-pyrimidine compounds and uses thereof” (Dizal (Jiangsu) Pharmaceutical Co., Ltd., priority 2019, dated 2023)

Tests used:
[1] = target: hA2a (Homo sapiens (Human), UniProt P29274); assay: cAMP inhibition assay in hA2a/CHO cells; type: cell-based; conditions: 10 μM adenosine, read-out: cAMP & FLIPR IC50 (nM) hA2a
Method: (§1) hA2a/CHO, hA2b/CHO and mA2a/CHO(Genscript) were plated at 5×10^3 cells/well into 384-well polystyrene plates at the day of experiment. Compounds were pre-incubated with cells for 30 min at 37° C., 5% CO2. Then 10 μM adenosine was added to the cells and incubated for 30 min at 37° C., 5% CO2. Detection reagent (CISBIO) was added and the plates were incubated for 60 min at room temperature. The signal was captured by Envision.
FLIPR™ and cAMP inhibition activities of exemplary compounds in different adenosine receptor over-expressing cell lines are shown in Table 4 below.

[2] = target: mA2a (Mus musculus (Mouse), UniProt Q60613); assay: cAMP inhibition assay in mA2a/CHO cells; type: cell-based; conditions: 10 μM adenosine, read-out: cAMP & FLIPR IC50 (nM) mA2a
mA2a, sequence (Q60613 whole entry): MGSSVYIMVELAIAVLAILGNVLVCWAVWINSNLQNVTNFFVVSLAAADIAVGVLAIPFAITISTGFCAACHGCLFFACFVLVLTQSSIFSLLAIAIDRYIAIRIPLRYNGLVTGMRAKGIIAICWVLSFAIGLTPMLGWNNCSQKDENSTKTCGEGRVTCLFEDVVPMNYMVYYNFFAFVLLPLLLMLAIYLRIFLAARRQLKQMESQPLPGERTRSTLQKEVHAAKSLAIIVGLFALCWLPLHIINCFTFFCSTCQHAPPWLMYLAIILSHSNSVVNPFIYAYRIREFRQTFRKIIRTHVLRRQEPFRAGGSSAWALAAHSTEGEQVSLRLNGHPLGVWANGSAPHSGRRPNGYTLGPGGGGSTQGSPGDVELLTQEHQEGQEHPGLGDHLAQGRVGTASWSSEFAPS
Method: as §1

hA2a, sequence (P29274 whole entry): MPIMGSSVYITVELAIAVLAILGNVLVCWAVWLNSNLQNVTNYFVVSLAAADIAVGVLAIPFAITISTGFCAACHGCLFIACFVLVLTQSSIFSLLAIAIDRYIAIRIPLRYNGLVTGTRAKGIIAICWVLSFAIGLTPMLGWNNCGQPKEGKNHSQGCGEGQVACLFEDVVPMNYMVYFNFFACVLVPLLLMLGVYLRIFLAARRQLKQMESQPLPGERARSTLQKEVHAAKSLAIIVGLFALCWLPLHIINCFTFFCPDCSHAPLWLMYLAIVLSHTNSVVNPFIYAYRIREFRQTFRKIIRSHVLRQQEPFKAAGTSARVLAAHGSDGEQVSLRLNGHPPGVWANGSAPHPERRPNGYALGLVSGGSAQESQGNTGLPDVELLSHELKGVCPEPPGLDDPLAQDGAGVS

## Cc1cnc2ccc(-c3c(-c4ccc(F)cc4)nc(N)n4nc(CC5CCOC5)nc34)cn12 (single isomer, unassigned; isomer 2) [Example 105-2, 7-(4-fluorophenyl)-8-(3-methylimidazo[1,2-a]pyridin-6-yl)-2-((tetrahydrofuran-3-yl)methyl)-[1,2,4]triazolo[1,5-c]pyrimidin-5-amine (isomer 2)]
[1]
  IC50: 0.1 nM
[2]
  IC50: 1 nM
